Reference: patent publication US8415312B2, “Compound which is a nystatin derivative” (Biosergen AS, priority 2007, dated 2013)
Values after ≈ are worked out from the molar mass of the structure shown. Values joined by “and” are separate entries in the source; they are usually repeats but may differ in a detail not shown here. Identical values can stand only once.

Assays:
[1] = system: Cryptococcus humicolus ATCC 9949; experiment: Antifungal susceptibility study (1), broth microdilution MIC; assay type: cell-based; conditions: lowest concentration preventing any visible growth, read at 48 hours, 25° C., RPMI 1640 pH 7.0
Method in brief: (§1)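 Broth microdilution in test medium at pH 7.0 with two-fold compound dilutions (DMSO stocks diluted 50-fold into medium), inoculated with freshly grown yeast cultures. Plates were incubated without agitation at 35° C. for C. albicans or 25° C. for C. humicolus. MIC was taken as the concentration with no visible growth, read at 48 hours.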

[2] = system: Candida albicans ATCC 14053; experiment: as above; assay type: cell-based; conditions: lowest concentration preventing any visible growth, read at 48 hours, 35° C., RPMI 1640 pH 7.0
Method in brief: as §1

[3] = system: yeasts and filamentous fungi (moulds); experiment: Antifungal susceptibility study (1), overall comparison across the test organisms; assay type: cell-based; conditions: Table 5 MICs
Protocol: The organisms used for susceptibility testing were: Candida albicans ATCC 14053, Cryptococcus humicolus ATCC 9949, Aspergillus niger ATCC 16404 and Fusarium oxysporum VKM F-140 (=CMI, IMI 90473). Organisms were stored on potato dextrose agar […] 50% glycerol solution at -70° C. For short-term storage, stock cultures were stored on agar […] 4° C. The cultures of yeasts were sub-cultured onto Sabouraud dextrose (SAB) agar and incubated for 24 hours at 35° C. (Candida albicans) or for 48 hours at 25° C. (Cryptococcus humicolus) to obtain a freshly grown pure culture. The cultures of moulds were sub-cultured onto potato dextrose agar and incubated for 7 days at 35° C. […] (Fusarium oxysporum) to ensure maximum sporulation. Sterile 96-well flat-bottomed microtitration plates were used for testing. 100 μl of diluted inocula were dispensed into each microdilution well containing 100 μl of the double dilutions of compounds. Drug-free and yeast/mould-free controls were included. Microdilution trays were incubated at 35° C. (Candida albicans and moulds) or 25° C. (Cryptococcus humicolus) without agitation and observed for the presence or absence of visible growth. […] Minimal inhibitory concentrations (MICs) were read at 48 hours.

erythrocytes = experiment: In vitro toxicity study, haemolysis (Tables 11 and 12); assay type: cell-based, horse
Protocol: The toxicity of various nystatin derivatives was tested at 2 and 5 μg/mL and at 25 μM.
Compounds were dissolved in DMSO at 5 mg/mL and 0.1 mL samples with different concentrations were prepared in DMSO. The samples were mixed with 0.9 mL PBS buffer containing 2.5% horse blood (PBS-HB; kept on ice) and incubated at 37° C. for 30 min without agitation.
Cells were pelleted by centrifugation at 5000 rpm for 5 min and haemolysis was evaluated by measuring OD545. 100% haemolysis was defined as the OD545 value obtained from a suspension of 2.5% horse blood in distilled water.

[4] = system: Aspergillus niger ATCC 16404; experiment: Antifungal susceptibility study (1), broth microdilution MIC; assay type: cell-based; conditions: lowest concentration preventing any visible growth, read at 48 hours, 35° C., RPMI 1640 pH 7.0
Method in brief: (§2)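 Broth microdilution was run at pH 7.0 with compounds diluted from DMSO solutions and mixed 1:1 with conidial inoculum. Spore suspensions were adjusted to OD530 0.09-0.11 for A. niger or 0.15-0.17 for F. oxysporum, then diluted 1:50. Plates were incubated at 35° C without agitation, and MIC was read at 48 hours as absence of visible growth.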

[5] = system: Fusarium oxysporum VKM F-140; experiment: as above; assay type: cell-based; conditions: lowest concentration preventing any visible growth, read at 48 hours, 35° C., RPMI 1640 pH 7.0
Method in brief: as §2

[6] = system: Candida albicans ATCC 10231; experiment: Antifungal susceptibility study (2), MIC50 by OD490 growth; assay type: cell-based; conditions: 50% growth inhibition from regression curve, M19 medium without NaCl, 30° C.
Protocol: The anti-fungal activity of several of the nystatin derivatives was further investigated. […] The anti-fungal activity of a number of the nystatin derivatives was therefore determined in a method which is designed to be more sensitive.
The test organism used for the further testing of polyene macrolide bioactivity was Candida albicans ATCC 10231, grown in 120 μl of standard M19 medium without NaCl (with an inoculum of 1000 cfu per well) and 30 μl of diluted polyene macrolide samples. The antibiotics were diluted in MeOH in series ensuring a spectrum of concentrations which yielded results ranging from complete growth inhibition to no inhibition of the test organism. The test organism cultures with antibiotic dilutions were incubated in 96-well microtiter plates at 30° C. without shaking, and growth was measured as OD490 after 12, 14 and 16 hours on a SpectraMax Plus microtiter plate reader. OD was plotted against antibiotic concentration, and MIC50 was estimated from the regression curve at 50% growth inhibition.

[7] = system: mice (C57B1/6xDBA/2)F1 B6D2F1; conditions: for LD50 / MTD: single injection into tail vein, probit analysis
Method in brief: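 Male B6D2F1 mice, 20-22 g, given one tail-vein injection of antibiotic suspended with sodium deoxycholate in phosphate buffer, within 1-1.5 h of preparation. Doses spanned 0% to 100% lethality with at least 3 intermediate doses, in randomized groups of 6 mice.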

Candida albicans = experiment: Neutropenic mouse model of disseminated candidosis; assay type: in vivo
Protocol: Mice were rendered neutropenic by injection with cyclophosphamide monohydrate (Fluka, BioChemika, Sigma-Aldrich, Switzerland) intraperitoneally 2×100 mg/kg of body weight 1 day before infection.

Compound	MIC Cryptococcus humicolus ATCC 9949 [1] [µg/mL]	MIC Candida albicans ATCC 14053 [2] [µg/mL]	anti-fungal activity compared with Amphotericin B and S44HP [3]	Haemolysis of erythrocytes, Mean ± S.E.M. (erythrocytes; 25 μM (Table 12)) [%]	Haemolysis of erythrocytes (erythrocytes; 25 μM, individual blood samples (Table 12))	MIC Aspergillus niger ATCC 16404 [4] [µg/mL]	MIC Fusarium oxysporum VKM F-140 [5] [µg/mL]	MIC50 [6] [µg/mL]	acute toxicity, times lower than amphotericin B [7] [times]	LD50 [7] [mg/kg]	MTD [7] [mg/kg]	activity compared with amphotericin B (Candida albicans)
CCOC(=O)CNC(=O)C1C(O)CC2(O)CC(O)C(O)CCC(O)CC(O)CC(O)CC(=O)OC(C)C(C)C(O)C(C)C=CC=CC=CC=CC=CC=CC=CC(OC3OC(C)C(O)C(N)C3O)CC1O2 (stereo not shown) [Compound 9]	1 (≈ 0.991 µM)	1 (≈ 0.991 µM)	comparable anti-fungal activity to Amphotericin B and S44HP	18.4 ± 1.9	18.0% and 16.7% and 22.4% and 25% and 16.2% and 12.2%	2 (≈ 1.98 µM)	4 (≈ 3.96 µM)	0.13 (≈ 0.129 µM)	–	–	–	–
CC1C=CC=CC=CC=CC=CC=CC=CC(OC2OC(C)C(O)C(N)C2O)CC2OC(O)(CC(O)CC(O)CC(O)CC(O)CC(O)CC(=O)OC(C)C(C)C1O)CC(O)C2C.NC(CCC(=O)O)C(=O)O (stereo not shown) [Compound 26]	–	–	–	–	–	–	–	–	~20	50.0	43.1	less active than amphotericin B
CC1C=CC=CC=CC=CC=CC=CC=CC(OC2OC(C)C(O)C(N)C2O)CC2OC(O)(CC(O)CCCC(O)CC(O)CC(O)CC(=O)OC(C)C(C)C1O)CC(O)C2C.NC(CCC(=O)O)C(=O)O (stereo not shown) [Compound 25]	–	–	–	–	–	–	–	–	~20	50.8	42.8	less active than amphotericin B
